Results taken from patent publication US10981926B2 (Janssen Pharmaceutica NV, priority 2016, dated 2021).

Columns and labels:
Assay type in all cases: cell-based
[1] = target: T1, wild-type Androgen Receptor (AR-wt) (Homo sapiens (Human), UniProt P10275); assay: LNCaP-AR-wt AG reporter assay (agonist mode); conditions: for EC50: read-out: LNCaP-AR-wt AG pEC50 (converted); for Emax: read-out: LNCaP-AR-wt AG MAX % Stim
[2] = target: T1, wild-type Androgen Receptor (AR-wt); assay: LNCaP-AR-wt ANT reporter assay (antagonist mode); conditions: for IC50: read-out: LNCaP-AR-wt ANT pIC50 (converted); for Emax: read-out: LNCaP-AR-wt ANT MAX % Inh
[3] = target: T2, F876L mutant Androgen Receptor (AR-F876L) (Homo sapiens (Human), UniProt P10275, F877L); assay: LNCaP-AR-F876L ANT reporter assay (antagonist mode); conditions: for IC50: read-out: LNCaP-AR-F876L ANT pIC50 (converted); for Emax: read-out: LNCaP-AR-F876L ANT MAX % Inh
[4] = target: T2, F876L mutant Androgen Receptor (AR-F876L); assay: LNCaP-AR-F876L AG reporter assay (agonist mode); conditions: for EC50: read-out: LNCaP-AR-F876L AG pEC50 (converted); for Emax: read-out: LNCaP-AR-F876L AG MAX % Stim
[5] = agonist mode, pEC50 = −Log10(EC50 in Molar)
[6] = maximum % stimulation (agonist response) over the tested concentration range
[7] = antagonist mode, pIC50 = −Log10(IC50 in Molar)
[8] = maximum % inhibition of R1881 control response over the tested concentration range
[9] = agonist mode, maximum % stimulation over tested concentration range
[10] = antagonist mode, maximum % inhibition of R1881 control response over tested concentration range

T1 sequence (P10275 whole entry): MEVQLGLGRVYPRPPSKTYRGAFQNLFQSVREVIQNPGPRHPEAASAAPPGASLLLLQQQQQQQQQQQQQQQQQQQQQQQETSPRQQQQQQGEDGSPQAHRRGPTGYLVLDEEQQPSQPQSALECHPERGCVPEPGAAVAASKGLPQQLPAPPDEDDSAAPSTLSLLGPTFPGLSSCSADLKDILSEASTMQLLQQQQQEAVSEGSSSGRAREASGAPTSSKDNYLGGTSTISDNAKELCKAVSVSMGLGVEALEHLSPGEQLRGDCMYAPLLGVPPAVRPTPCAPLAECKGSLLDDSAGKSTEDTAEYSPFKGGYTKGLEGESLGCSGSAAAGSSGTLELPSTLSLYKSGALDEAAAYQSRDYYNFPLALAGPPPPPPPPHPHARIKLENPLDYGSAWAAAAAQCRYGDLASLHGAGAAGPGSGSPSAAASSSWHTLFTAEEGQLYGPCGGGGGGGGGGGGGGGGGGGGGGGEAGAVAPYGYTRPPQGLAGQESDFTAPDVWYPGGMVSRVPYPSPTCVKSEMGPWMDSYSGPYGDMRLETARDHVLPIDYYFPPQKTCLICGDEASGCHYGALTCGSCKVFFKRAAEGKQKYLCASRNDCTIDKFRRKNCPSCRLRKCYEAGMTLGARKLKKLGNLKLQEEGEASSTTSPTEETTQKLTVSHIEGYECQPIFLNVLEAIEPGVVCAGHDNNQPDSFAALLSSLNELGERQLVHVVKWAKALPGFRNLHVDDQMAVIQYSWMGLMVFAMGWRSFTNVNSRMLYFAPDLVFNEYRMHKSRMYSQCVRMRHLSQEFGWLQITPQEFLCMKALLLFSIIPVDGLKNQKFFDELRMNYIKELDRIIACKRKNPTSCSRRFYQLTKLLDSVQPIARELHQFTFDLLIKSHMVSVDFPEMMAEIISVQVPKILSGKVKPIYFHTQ
T2 sequence (P10275 whole entry F877L): as the sequence (P10275 whole entry) above, with F877L counted along it

| SMILES | EC50 [1, 5] [nM] | Emax [1, 6] [%] | IC50 [2, 7] [nM] | Emax [2, 8] [%] | IC50 [3, 7] [nM] | Emax [3, 8] [%] | EC50 [4, 5] [nM] | Emax [4, 6] [%] | LNCaP-AR-wt AG pEC50 [1, 5] | LNCaP-AR-wt ANT pIC50 [2, 7] | LNCaP-AR-F876L ANT pIC50 [3, 7] | LNCaP-AR-F876L AG pEC50 [4, 5] | Emax [1, 9] [%] | Emax [2, 10] [%] | Emax [3, 10] [%] | Emax [4, 9] [%] |
| --- | --- | --- | --- | --- | --- | --- | --- | --- | --- | --- | --- | --- | --- | --- | --- | --- |
| COc1cc(N2C(=S)N(c3cnc(C#N)c(C)c3)C(=O)C23CCC3)ccc1-c1ccc(C)o1 [Cpd 5, 5-{8-[3-methoxy-4-(5-methyl(2-furyl))phenyl]-5-oxo-7-thioxo-6,8-diazaspiro[3.4]oct-6-yl}-3-methylpyridine-2-carbonitrile] | > 15100 | 1.2 | 676 | 98.8 | 661 | 90.3 | > 15100 | 3.3 | – | – | – | – | – | – | – | – |
| CN1C2C=C(c3ccc(N4C(=S)N(c5cnc(C#N)c(C(F)(F)F)c5)C(=O)C45CCC5)cc3)CC1CC2 (stereo not shown) [Cpd 127, 5-[8-[4-(8-methyl-8-azabicyclo[3.2.1]oct-3-en-3-yl)phenyl]-5-oxo-7-thioxo-6,8-diazaspiro[3.4]octan-6-yl]-3-(trifluoromethyl)pyridine-2-carbonitrile] | – | 0.5 | – | 102 | – | 102 | – | 0.4 | <4.82 | 6.23 | 6.37 | <4.82 | – | – | – | – |
| CN1CCN(Cc2ccc(N3C(=S)N(c4cnc(C#N)c(Cl)c4)C(=O)C34CCC4)cc2)CC1 [Cpd 219, 3-chloro-5-[8-[4-[(4-methylpiperazin-1-yl)methyl]phenyl]-5-oxo-7-thioxo-6,8-diazaspiro[3 4]octan-6-yl]pyridine-2-carbonitrile] | > 15100 | – | 372 | – | 347 | – | > 15100 | – | – | – | – | – | 0.3 | 102 | 101 | 0.2 |
| Cc1cc(N2C(=O)C3(CCC3)N(c3ccc(OCCCN(C)C)nc3)C2=S)cnc1C#N [Cpd 27, 5-[8-[6-[3-(dimethylamino)propoxy]-3-pyridyl]-5-oxo-7-thioxo-6,8-diazaspiro[3.4]octan-6-yl]-3-methyl-pyridine-2-carbonitrile] | > 15100 | 0 | 219 | 101 | 107 | 101 | > 15100 | -0.1 | – | – | – | – | – | – | – | – |
| COc1cc(N2C(=O)C3(CCC3)N(c3ccc4nn(CCO)cc4c3)C2=S)cnc1C#N [Cpd 164, 5-[8-[2-(2-hydroxyethyl)indazol-5-yl]-5-oxo-7-thioxo-6,8-diazaspiro[3.4]octan-6-yl]-3-methoxy-pyridine-2-carbonitrile] | > 15100 | 0.3 | 537 | 102 | 295 | 101 | > 15100 | 0 | – | – | – | – | – | – | – | – |
| CN(C(=O)OC(C)(C)C)C1(COc2ccc(N3C(=S)N(c4cnc(C#N)c(C(F)(F)F)c4)C(=O)C34CCC4)cc2)COC1 [Cpd 196, tert-butyl N-[3-[[4-[6-[6-cyano-5-(trifluoromethyl)-3-pyridyl]-5-oxo-7-thioxo-6,8-diazaspiro[3.4]octan-8-yl]phenoxy]methyl]oxetan-3-yl]-N-methyl-carbamate] | > 15100 | – | 589 | – | 437 | – | > 15100 | – | – | – | – | – | -0.2 | 100 | 99.9 | 0.2 |
| CN1CC2CC1CC2Oc1ccc(N2C(=S)N(c3cnc(C#N)c(C(F)(F)F)c3)C(=O)C23CCC3)cn1 [Cpd 177, (R,S)-5-[8-[6-[(2-methyl-2-azabicyclo[2.2.1]heptan-5-yl)oxy]-3-pyridyl]-5-oxo-7-thioxo-6,8-diazaspiro[3.4]octan-6-yl]-3-(trifluoromethyl)pyridine-2-carbonitrile] | > 15100 | 0.2 | 525 | 102 | 457 | 100 | > 15100 | 0.4 | – | – | – | – | – | – | – | – |
| N#Cc1ncc(N2C(=O)C3(CCC3)N(c3ccc(O)nc3)C2=S)cc1Cl [Cpd 45, 3-chloro-5-[8-(6-hydroxy-3-pyridyl)-5-oxo-7-thioxo-6,8-diazaspiro[3.4]octan-6-yl]pyridine-2-carbonitrile] | > 15100 | -0.3 | 3020 | 92.9 | 1260 | 99.2 | > 15100 | 0 | – | – | – | – | – | – | – | – |
| N#Cc1ncc(N2C(=O)C3(CCC3)N(c3ccc4c(ccn4CCO)c3)C2=S)cc1C(F)(F)F [Cpd 248, 5-[8-[1-(2-hydroxyethyl)indol-5-yl]-5-oxo-7-thioxo-6,8-diazaspiro[3.4]octan-6-yl]-3-(trifluoromethyl)pyridine-2-carbonitrile] | > 15100 | – | 417 | – | 372 | – | > 15100 | – | – | – | – | – | 0 | 0 | 102 | 0.4 |
| N#Cc1ncc(N2C(=O)C3(CCC3)N(c3ccc4c(cnn4CC4CCNCC4)c3)C2=S)cc1C(F)(F)F [Cpd 128, 5-(8-Oxo-5-(1-(piperidin-4-ylmethyl)-1H-indazol-5-yl)-6-thioxo-5,7-diazaspiro[3.4]octan-7-yl)-3-(trifluoromethyl)picolinonitrile] | > 15100 | 0.2 | 1070 | 101 | 468 | 101 | > 15100 | 0.3 | – | – | – | – | – | – | – | – |
| COC(=O)C1CCC(N2C(=S)N(c3cnc(C#N)c(C(F)(F)F)c3)C(=O)C23CCC3)CC1 (stereo not shown) [Cpd 57, Methyl 4-[6-[6-cyano-5-(trifluoromethyl)-3-pyridyl]-5-oxo-7-thioxo-6,8-diazaspiro[3.4]octan-8-yl]cyclohexanecarboxylate] | > 15100 | 0.3 | 490 | 100 | 200 | 99.1 | > 15100 | 0.3 | – | – | – | – | – | – | – | – |
| COCCn1ncc2cc(N3C(=S)N(c4cnc(C#N)c(OC)c4)C(=O)C34CCC4)ccc21 [Cpd 173, 3-methoxy-5-[8-[1-(2-methoxyethyl)indazol-5-yl]-5-oxo-7-thioxo-6,8-diazaspiro[3.4]octan-6-yl]pyridine-2-carbonitrile] | > 15100 | 0.4 | 437 | 100 | 186 | 100 | > 15100 | 0.1 | – | – | – | – | – | – | – | – |
| N#Cc1ncc(N2C(=O)C3(CCC3)N(c3ccc4ccn(CCO)c4c3)C2=S)cc1C(F)(F)F [Cpd 250, 5-[8-[1-(2-hydroxyethyl)indol-6-yl]-5-oxo-7-thioxo-6,8-diazaspiro[3.4]octan-6-yl]-3-(trifluoromethyl)pyridine-2-carbonitrile] | > 15100 | – | 1170 | – | 977 | – | > 15100 | – | – | – | – | – | 0 | 0 | 101 | 0.1 |
| CC(C)(C)OC(=O)N1CCC(Cn2cc3cc(N4C(=S)N(c5cnc(C#N)c(C(F)(F)F)c5)C(=O)C45CCC5)ccc3n2)CC1 [Cpd 122, tert-Butyl 4-[[5-[6-[6-cyano-5-(trifluoromethyl)-3-pyridyl]-5-oxo-7-thioxo-6,8-diazaspiro[3.4]octan-8-yl]indazol-2-yl]methyl]piperidine-1-carboxylate] | > 15100 | 0.3 | 282 | 98 | 282 | 96.4 | > 15100 | 0.7 | – | – | – | – | – | – | – | – |
| CN1CCC(Cn2ncc3cc(N4C(=S)N(c5cnc(C#N)c(C(F)(F)F)c5)C(=O)C45CCC5)ccc32)CC1 [Cpd 132, 5-(5-(1-((1-methylpiperidin-4-yl)methyl)-1H-indazol-5-yl)-8-oxo-6-thioxo-5,7-diazaspiro[3.4]octan-7-yl)-3-(trifluoromethyl)picolinonitrile] | > 15100 | 0.5 | 372 | 101 | 148 | 98.7 | > 15100 | 0.9 | – | – | – | – | – | – | – | – |
| CC(C)(C)OC(=O)N1CCc2cc(N3C(=S)N(c4cnc(C#N)c(C(F)(F)F)c4)C(=O)C34CCC4)ccc2C1 [Cpd 118, tert-butyl 6-[6-[6-cyano-5-(trifluoromethyl)-3-pyridyl]-5-oxo-7-thioxo-6,8-diazaspiro[3.4]octan-8-yl]-3,4-dihydro-1H-isoquinoline-2-carboxylate] | > 15100 | 0.1 | 490 | 101 | 676 | 93.7 | > 15100 | 0.8 | – | – | – | – | – | – | – | – |
| N#Cc1ncc(N2C(=O)C3(CCC3)N(c3ccc(OC4CCN(CCCF)CC4)cc3)C2=S)cc1C(F)(F)F [Cpd 14, 5-(5-(4-((1-(3-fluoropropyl)piperidin-4-yl)oxy)phenyl)-8-oxo-6-thioxo-5,7-diazaspiro[3.4]octan-7-yl)-3-(trifluoromethyl)picolinonitrile] | > 15100 | 0.4 | 562 | 97.1 | 234 | 98.4 | > 15100 | 0.2 | – | – | – | – | – | – | – | – |
